Measured values taken from patent US6723716B1, “7-acylamino-3-heteroarylthio-3-cephem carboxylic acid antibiotics and prodrugs thereof” (Essential Therapeutics, Inc., priority 1999, dated 2004).
≈ marks a conversion by molar mass, not a printed value.

Legend:
[1] = system: E. faecium A491 (Amp^R); assay: Broth microdilution MIC (NCCLS); format: cell-based; settings: Enterococcus faecium
Procedure: (§1) Compounds were evaluated for antimicrobial activity against a panel of bacterial strains using a broth microdilution assay performed as recommended by the NCCLS (1). The minimum inhibitory concentration (MIC) was defined as the lowest concentration of drug which prevented the growth of the bacteria.
(§2) For this primary panel, the assay was performed in Mueller-Hinton Broth (MHB) with a final bacterial inoculum of 5×10^5 CFU/mL (from an early-log phase culture) and a final volume of 100 μL. Control drugs, including imipenem, vancomycin, Penicillin G, dicloxacillin (vs. MSSA ATCC29213 only), and new compounds were prepared at a concentration equivalent to 2-fold the desired final concentration. Dilution of compounds were prepared directly in the plates by serial 2-fold dilution using a multichannel pipette. Positive and negative growth control were included in each plate.
(§3) The bacterial inocula were prepared as follows. For each strain one isolated colony was used to inoculate a volume of 8 mL of Mueller-Hinton broth and these cultures were incubated overnight (20 h) at 35° C. in a shaking incubator. At the exception of Enterococcus strains, culture were then diluted 1:10 and allowed to grow for an additional one hour at 35° C. in a shaking incubator. The inocula were prepared by diluting the early log-phase (1 h) cultures 1:1000 with fresh Mueller-Hinton broth. E. faecium and E. faecalis were prepared by diluting overnight cultures 1:333 and 1:666, respectively, with fresh Mueller-Hinton broth. A volume of 50 μL of the inocula was added to each well. […] The exact inocula were determined by applying 10 μL of 10-fold serial dilution of the bacterial suspensions on TSA. After overnight incubation at 35° C., colony forming units were manually counted.
(§4) Microtiter plates were incubated during 24 h at 35° C. and were read using a microtiterplate reader (Molecular Devices) at 650 nm as well as by visual observation using a microtiterplate reading mirror.

[2] = system: S. aureus ATCC 13709 (Meth^S); assay: Broth microdilution MIC (NCCLS); format: cell-based; settings: Staphylococcus aureus, ATCC13709, S. aureus ATCC 13709 (Meth^S); read-out: MIC
Procedure: as §1, §2, §3, §4

[3] = system: S. aureus Spain #356 (Meth^R); assay: Broth microdilution MIC (NCCLS); format: cell-based; settings: Staphylococcus aureus, 24 h
Procedure: as §1, §2, §3, §4

[4] = system: S. haemolyticus 05 (Meth^R); assay: Broth microdilution MIC (NCCLS); format: cell-based; settings: Staphylococcus haemolyticus
Procedure: as §1, §2, §3, §4

[5] = system: S. aureus ATCC 33593 (Meth^R); assay: Broth microdilution MIC (NCCLS); format: cell-based; settings: Staphylococcus aureus, ATCC33593
Procedure: as §1, §2, §3, §4

[6] = system: E. faecium VanA (Van^R); assay: Broth microdilution MIC (NCCLS); format: cell-based; settings: Enterococcus faecium
Procedure: as §1, §2, §3, §4

[7] = system: S. aureus Col (Meth^R)(lac^−); assay: Broth microdilution MIC (NCCLS); format: cell-based; settings: Staphylococcus aureus
Procedure: as §1, §2, §3, §4

[8] = system: E. coli ATCC25992; assay: Broth microdilution MIC (NCCLS); format: cell-based; settings: Escherichia coli
Procedure: as §1, §2, §3, §4

[9] = system: P. aeruginosa ATCC 27853; assay: Broth microdilution MIC (NCCLS); format: cell-based; settings: Pseudomonas aeruginosa, ATCC27853
Procedure: as §1, §2, §3, §4

[10] = system: S. aureus 76 (Meth^R)(lac^+); assay: Broth microdilution MIC (NCCLS); format: cell-based; settings: Staphylococcus aureus
Procedure: as §1, §2, §3, §4

[11] = system: E. faecium ATCC 35667; assay: Broth microdilution MIC (NCCLS); format: cell-based; settings: Enterococcus faecium, ATCC35667
Procedure: as §1, §2, §3, §4

[12] = system: S. aureus ATCC 29213; assay: Broth microdilution MIC (NCCLS); format: cell-based; settings: Staphylococcus aureus, ATCC29213; S. aureus ATCC 29213; Mueller-Hinton broth, 24 h at 35° C.; read-out: MIC
Procedure: as §1, §2, §3, §4

[13] = system: S. aureus PC1 (Meth^S)(lac^+); assay: Broth microdilution MIC (NCCLS); format: cell-based; settings: Staphylococcus aureus
Procedure: as §1, §2, §3, §4

[14] = system: E. faecalis ATCC 29212; assay: Broth microdilution MIC (NCCLS); format: cell-based; settings: Enterococcus faecalis, ATCC29212
Procedure: as §1, §2, §3, §4

[15] = system: E. faecalis VanB (Van^R); assay: Broth microdilution MIC (NCCLS); format: cell-based; settings: Enterococcus faecalis
Procedure: as §1, §2, §3, §4

[16] = In vitro stability of compounds in rat serum; format: in vitro ADME; settings: Table 2 data
Procedure: In general, compounds from the class of 7-acylamino-3-heteroarylthio-3-cephem carboxylic acids have higher chemical reactivity and lower stability towards chemical or enzymatic decomposition than most typical cephalosporins. […] Results shown in Table 2 represent percentage loss of the initial amount of cephalosporin compound upon 60 min incubation in rat serum.
Procedure for measuring degree of degradation of cephalosporin compounds in rat serum was as follows:
Fresh control rat serum (heparinized and stored frozen) is preincubated at 37° C. for 15 min in a shaking water bath. pH is measured using test strips. 25 μL of a 2 mg/mL solution cephalosporin compound (in water) of is then added to each matrix to make 1000 μL. Solutions were incubated at 37° C. 100 ul of solution was taken out at time=0, 15, 30, and 60 min post dose and added 200 μL 4% trichloroacetic acid, vortexed, and centrifuged for 10 min at 14,000 rpm in an Eppendorf microcentrifuge. 25 μL of each supernatant was injected onto HPLC. Experiment was repeated using 25 μL of a 0.2 mg/mL cephalosporin compound. Degradation is measured as the percentage of HPLC peak area at time t relative to peak area at time 0.
HPLC conditions: Beckman Ultrasphere C18 column. 5 u. 4.6 mm×25 cm. 1 mL/min of 95% 0.1 M ammonium acetate, pH 6, 5% ACN going to 75% buffer/organic over 20 min. UV monitored at 254 and 280 nm.

[17] = system: S. aureus ATCC29213; assay: Human serum binding effect: MIC with and without human serum; format: cell-based, Staphylococcus aureus; settings: 1:1 human serum:MHB
Procedure: The approximate measurement of the degree of binding of the compound to human serum proteins can be achieved by determination of the effect of the addition of human serum to the medium in which the MIC values against a selected bacterial strain is determined. The ratio of the MIC value obtained in presence of added human serum to the MIC value determined without serum addition was used as a measure of serum binding and the results of such determination are presented below in Table 2.
In addition to the standard MIC determination described above, the staphylococcal strain ATCC29213 is also tested in a ratio 1:1, human serum:MHB to obtain a preliminary estimate of the bioactivity of test compounds in serum: The assay was performed in Human Serum and Mueller-Hinton Broth (HSMHB) with a final bacterial inoculum of 1×10^6 CFU/mL (from an early-log phase culture) and a final volume of 100 μL. Control drugs, including imipenem, vancomycin, dicloxacillin, and new compounds were prepared in double-concentrated Mueller-Hinton broth at a concentration equivalent to 4-fold the desired final concentration. Dilution of compounds were prepared directly in the plates by serial 2-fold dilution in double-concentrated Mueller-Hinton using a multichannel pipette. Positive and negative growth controls were included in each plate. […] The inoculum was prepared by diluting the early log-phase (1 h) culture 1:100 with fresh double-concentrated Mueller-Hinton broth. A volume of 25 μL of the inoculum was added to each well. […] The exact inoculum was determined by applying 10 μl of 10-fold serial dilution of the bacterial suspension on TSA. After overnight incubation at 35° C., colony forming units were manually counted.

[18] = system: S. aureus ATCC 13709 (Smith diffuse); assay: Murine lethal bacteremic peritonitis (septicemia) efficacy; format: in vivo, mice; settings: Staphylococcus aureus, ATCC13709, sc, read-out: Efficacy in murine septicemia % survival
Procedure: 10 mice/group were injected intraperitoneally with 2.98×10^7 cfu S. aureus ATCC 13709 (Smith diffuse) and treated at 0 and 2 hrs post-challenge with serial two-fold doses of new cephalosporin antibiotic, imipenem and vancomycin subcutaneously in order to determine the ED50. Male Swiss-Webster mice weighing originally 24.2-26.1 g were obtained from Charles Rivers Labs, Hollister, Calif. Mice were housed 10 per cage and given free access to water and mouse chow.
Staphylococcus aureus ATCC 13709 (Smith diffuse) was grown overnight at 37° C. in Brain-heart Infusion broth (BHIB). The following morning, it was subcultured to fresh BHIB and incubated for 4-5 h at 37° C. The log-phase growth cells were washed once with physiological saline and adjusted to the desired concentration by correlation of absorbency at OD 600 nm with predetermined plate counts (NCCLS, 1994). The cell suspension was mixed with an equal volume of sterile 14% hog-gastric mucin (2). Inoculum was kept in an ice bath until used (<1 h).
Mice were challenged via an injection of 0.5 mL bacterial suspension intraperitoneally. The bacterial challenge was 2.98×10^7 cfu/mouse.
Imipenem (Primaxin IV; Lot 7294A), vancomycin (Vancocin; Lot 8MU60W), and new cephalosporin antibiotic were prepared by serial two-fold dilutions to concentrations of 0.078-0.005 mg/mL, 1.2-0.075 mg/mL, 0.3-0.02 mg/mL, 0.3-0.02 mg/mL and 0.3-0.02 mg/mL respectively in sterile water (1). All antibiotics were administered subcutaneously in 0.1 mL volumes at 0 and 2 hours post-challenge. Concentrations of all compounds are based on the weight of the bioactive ingredients.
The 50% effective dose (ED50) was calculated by the probit method (3) utilizing a program entitled Probit (Nycomed-Salutar).

| SMILES | MIC [2] [µg/mL] | MIC [3] [µg/mL] | MIC [4] [µg/mL] | MIC [5] [µg/mL] | MIC [6] [µg/mL] | MIC [8] [µg/mL] | MIC [9] [µg/mL] | MIC [10] [µg/mL] | MIC [11] [µg/mL] | MIC [12] [µg/mL] | MIC [13] [µg/mL] | MIC [14] [µg/mL] | MIC [15] [µg/mL] | Human serum binding effect (ratio of MIC value determined with and without human serum added) [17] | other results |
| --- | --- | --- | --- | --- | --- | --- | --- | --- | --- | --- | --- | --- | --- | --- | --- |
| NCCSc1nccnc1SC1=C(C(=O)O)N2C(=O)C(NC(=O)/C(=N\O)c3cccc(N)n3)C2SC1 (centres unmarked) [Cmpd 7] | 0.25 (≈ 0.456 µM) | 2 (≈ 3.65 µM) | 2 (≈ 3.65 µM) | 2 (≈ 3.65 µM) | 8 (≈ 14.6 µM) | 4 (≈ 7.29 µM) | > 32 | 2 (≈ 3.65 µM) | 8 (≈ 14.6 µM) | 0.25 (≈ 0.456 µM) | 0.25 (≈ 0.456 µM) | 2 (≈ 3.65 µM) | 4 (≈ 7.29 µM) | – | MIC [1]: > 32 µg/mL; MIC [7]: 2 µg/mL (≈ 3.65 µM) |
| NCCSCc1ccncc1SC1=C(C(=O)O)N2C(=O)[C@@H](NC(=O)/C(=N\O)c3nsc(N)n3)[C@H]2SC1 [Cmpd 27, (7R)-7-[(Z)-2-(5-amino-1,2,4-thiadiazol-3-yl)-2-(hydroxyimino)acetamido]-3-[4-(2-aminoethylthiomethyl)pyrid-3-ylthio]-3-cephem-4-carboxylic acid] | 0.25 (≈ 0.44 µM) | – | – | – | – | – | – | – | – | – | – | – | – | 4 | stability of compounds in rat serum [16]: improved stability |
| NCCSc1nnc(SC2=C(C(=O)O)N3C(=O)[C@@H](NC(=O)/C(=N\O)c4nc(N)sc4Cl)[C@H]3SC2)s1 [Cmpd 1, (7R)-7-[(Z)-2-(2-amino-5-chlorothiazol-4-yl)-2-(hydroxyimino)acetamido]-3-(2-aminoethylthio-1,3,4-thiadiazol-5-ylthio)-3-cephem-4-carboxylic acid] | 0.13 (≈ 0.218 µM) | 1 (≈ 1.68 µM) | 1 (≈ 1.68 µM) | 1 (≈ 1.68 µM) | 2 (≈ 3.36 µM) | 0.5 (≈ 0.84 µM) | – | – | 0.5 (≈ 0.84 µM) | – | 0.25 (≈ 0.42 µM) | – | 0.25 (≈ 0.42 µM) | 64 | – |
| Cc1nc(CSCCN)c(SC2=C(C(=O)O)N3C(=O)[C@@H](NC(=O)/C(=N\O)c4cccc(N)n4)[C@H]3SC2)s1 [Cmpd 2, (7R)-7-[(Z)-2-(2-aminopyrid-6-yl)-2-(hydroxyimino)acetamido]-3-[4-(2-aminoethylthiomethyl)-2-methyl-1,3-thiazol-5-ylthio]-3-cephem-4-carboxylic acid] | 0.13 (≈ 0.223 µM) | 2 (≈ 3.44 µM) | 4 (≈ 6.88 µM) | – | 4 (≈ 6.88 µM) | 32 (≈ 55 µM) | > 32 | 4 (≈ 6.88 µM) | 4 (≈ 6.88 µM) | 0.25 (≈ 0.43 µM) | 0.25 (≈ 0.43 µM) | 0.25 (≈ 0.43 µM) | 1 (≈ 1.72 µM) | 4 | – |
| NCCSCc1csc(SC2=C(C(=O)O)N3C(=O)[C@@H](NC(=O)/C(=N\O)c4cccc(N)n4)[C@H]3SC2)n1 [Cmpd 4, (7R)-7-[(Z)-2-(2-aminopyrid-6-yl)-2-(hydroxyimino)acetamido]-3-[4-(2-aminoethylthiomethyl)-1,3-thiazol-2-ylthio]-3-cephem-4-carboxylic acid] | 0.13 (≈ 0.229 µM) | 2 (≈ 3.52 µM) | – | 1 (≈ 1.76 µM) | – | 4 (≈ 7.05 µM) | – | 2 (≈ 3.52 µM) | 0.25 (≈ 0.44 µM) | 0.13 (≈ 0.229 µM) | 0.13 (≈ 0.229 µM) | 0.25 (≈ 0.44 µM) | 0.5 (≈ 0.881 µM) | 3 | – |
| C[C@@H](O)[C@H]1C(=O)N2C(C(=O)O)=C(SCCN=CN)C[C@H]12 [Imipenem, reference compound] | 0.008 (≈ 0.0267 µM) | – | – | – | – | – | – | – | – | – | – | – | – | 2 | responders at 0.039 mg/kg ([18]; dose 0.039 mg/kg s.c. at 0 and 2 h post-challenge): 20%; responders at 0.078 mg/kg ([18]; dose 0.078 mg/kg s.c. at 0 and 2 h post-challenge): 40%; responders at 0.156 mg/kg ([18]; dose 0.156 mg/kg s.c. at 0 and 2 h post-challenge): 100%; responders at 0.312 mg/kg ([18]; dose 0.312 mg/kg s.c. at 0 and 2 h post-challenge): 100%; responders at 0.625 mg/kg ([18]; dose 0.625 mg/kg s.c. at 0 and 2 h post-challenge): 100% |
